According to patent publication US8822445B2, “Crystalline form of carbapenem derivative or its hydrates and preparation methods and uses thereof” (priority 2010, dated 2014):
Values after ≈ are worked out from the molar mass of the structure shown. “Also recorded” adds a separate entry of the source.

Columns and labels:
[1] = Stability assay at a high temperature of 60° C. (water content, related substances, content); type: physicochemical; details: for Content %: HPLC; for Water content %: Karl Fischer method
Method: The crystalline form I: prepared by referring to the method of example 1 in CN201010178970.2. The batch number is 20100315-4;
The crystalline form II: prepared by example 2 of the Description. The batch number is 040805.
Test condition: sampled after being placed for 5 and 10 days at a high temperature of 60° C., and the results thus obtained were compared with those obtained at day 0 by measuring water content, related substances and contents thereof. The samples were sealed with plastic bags coated with aluminium foils during the assay.
Water content determination is performed according to the first method (the Karl Fischer method) in Chinese Pharmacopoeia, 2010 edition, Appendix VIII M.
Assay is performed by using the control as the external standard according to the high performance liquid chromatography in Chinese Pharmacopoeia, 2010 edition, Appendix VD.
Apparatus: high performance liquid chromatograph (Agilent 1200 series)
Chromatographic column: Agilent C18; filler: 5 μm octadecyl silane boned silica gel; inner diameter: 4.6 mm; length of the column: 150 mm.
Column temperature: 30° C.
Mobile phase: 0.02 M diammonium phosphate (pH=5.2 adjusted by phosphoric acid): acetonitrile=100:7
Determination of related substances is performed by area normalization method according to the high performance liquid chromatography in Chinese Pharmacopoeia, 2010 edition, Appendix VD.
Chromatographic column: Agilent C18; filler: 5 μm octadecyl silane boned silica gel; inner diameter: 4.6 mm; length of column: 150 mm.
Mobile phase: A: 0.02 M diammonium phosphate (pH=5.2 adjusted by phosphoric acid): acetonitrile=95:5.
B: 0.02 M diammonium phosphate (pH=5.2 adjusted by phosphoric acid): acetonitrile=30:70.
Gradient condition: see Table 1 below.

[2] = system: ESBLs negative Escherichia coli; assay: Antibacterial activity assay, standard agar double dilution method, clinically isolated strains; type: cell-based; details: ESBLs negative Escherichia coli clinical isolates
From the text: (§1) Test strains: the following clinically isolated strains were provided by public organizations.
(§2) Gram-positive bacteria: methicillin sensitive Staphylococcus aureus (MSSA), and penicillin sensitive Streptococcus pneumoniae;
(§3) Gram-negative bacteria: ESBLs negative Escherichia coli, ESBLs positive Escherichia coli, Haemophilus influenzae, and Moraxelle catarrhalis.
(§4) Test compound: the crystalline form II of compound A
(§5) Experimental method: standard agar double dilution method was adopted.

[3] = system: ESBLs positive Escherichia coli; assay: as above; type: cell-based; details: ESBLs positive Escherichia coli clinical isolates
From the text: as §1, §2, §3, §4, §5

Haemophilus influenzae = assay: as above; type: cell-based; details: Haemophilus influenzae clinical isolates
From the text: as §1, §2, §3, §4, §5

Moraxelle catarrhalis = assay: as above; type: cell-based; details: Moraxelle catarrhalis clinical isolates
From the text: as §1, §2, §3, §4, §5

[4] = system: methicillin sensitive Staphylococcus aureus (MSSA); assay: as above; type: cell-based; details: MSSA clinical isolates
From the text: as §1, §2, §3, §4, §5

[5] = system: penicillin sensitive Streptococcus pneumoniae; assay: as above; type: cell-based; details: Penicillin sensitive Streptococcus pneumoniae clinical isolates
From the text: as §1, §2, §3, §4, §5

[6] = system: Gram-positive and Gram-negative bacteria; assay: Antibacterial activity assay, overall conclusion; type: cell-based; details: clinically isolated strains
From the text: as §1, §2, §3, §4, §5

[7] = 5 days at 60° C. as compared with day 0
[8] = 10 days at 60° C. as compared with day 0

Structure (SMILES)	Decrease in content % [1, 7] [%]	Decrease in water content % [1, 7] [%]	Increase open ring % [1, 7] [%]	Increase total % [1, 7] [%]	Related substance % Total % ([1]; 5 days at 60° C., sealed) [%]	Related substance % open ring % ([1]; 5 days at 60° C., sealed) [%]	Content % ([1]; 5 days at 60° C.) [%]	Water content % ([1]; 5 days at 60° C.) [%]	Decrease in content % [1, 8] [%]	Decrease in water content % [1, 8] [%]	Increase open ring % [1, 8] [%]	Increase total % [1, 8] [%]	Related substance % Total % ([1]; 10 days at 60° C., sealed) [%]	Related substance % open ring % ([1]; 10 days at 60° C., sealed) [%]	Content % ([1]; 10 days at 60° C.) [%]	Water content % ([1]; 10 days at 60° C.) [%]	Related substance % Total % ([1]; day 0) [%]	Related substance % open ring % ([1]; day 0) [%]	Content % ([1]; day 0) [%]	Water content % ([1]; day 0) [%]	other results
C[C@@H](O)[C@H]1C(=O)N2C(C(=O)O)=C(S[C@@H]3CN[C@H](C(=O)NCc4ccc(S(N)(=O)=O)cc4)C3)[C@H](C)[C@H]12 [crystalline form II, (4R,5S,6S)-6-((R)-1-hydroxyethyl)-4-methyl-7-oxo-3-(((3S,5S)-5-((4-sulfamoylbenzyl)carbamoyl)pyrrolidin-3-yl)thio)-1-azabicyclo[3.2.0]hept-2-ene-2-carboxylic acid]	1.57	0.026	0.632	0.527	1.573	0.789	98.43	8.290	2.24	0.402	0.944	0.853	1.899	1.101	97.76	7.914	1.046	0.157	100	8.316	stability as compared with the crystalline form I ([1]; 5 and 10 days at 60° C.): superior stability; also recorded: better than that of the crystalline form I; MIC90 [2]: 0.016 µg/mL (≈ 0.0305 µM); MICmode [2]: 0.016 mg/L; MIC90 [3]: 0.25 µg/mL (≈ 0.477 µM); MICmode [3]: 0.016 mg/L; MIC90 (Haemophilus influenzae): 0.125 µg/mL (≈ 0.238 µM); MICmode (Haemophilus influenzae): 0.062 mg/L; MIC90 (Moraxelle catarrhalis): 0.008 µg/mL (≈ 0.0152 µM); MICmode (Moraxelle catarrhalis): 0.004 mg/L; MICmode [4]: 0.062 mg/L; MIC90 ([4]; Staphylococcus aureus): 0.062 µg/mL (≈ 0.118 µM); MIC90 [5]: 0.031 µg/mL (≈ 0.0591 µM); MICmode [5]: 0.008 mg/L; antibacterial activity [6]: excellent antibacterial activity against both Gram-positive and Gram-negative bacteria
C[C@@H](O)[C@H]1C(=O)N2C(C(=O)O)=C(S[C@@H]3CN[C@H](C(=O)NCc4ccc(S(N)(=O)=O)cc4)C3)[C@H](C)[C@H]12 [crystalline form I, (4R,5S,6S)-6-((R)-1-hydroxyethyl)-4-methyl-7-oxo-3-(((3S,5S)-5-((4-sulfamoylbenzyl)carbamoyl)pyrrolidin-3-yl)thio)-1-azabicyclo[3.2.0]hept-2-ene-2-carboxylic acid]	3.73	0.183	0.646	0.841	2.550	0.782	96.27	7.701	3.95	0.665	0.984	1.167	2.876	1.120	96.05	7.219	1.709	0.136	100	7.884	–
